Target: p21 activated kinase 4 (PAK4) (Homo sapiens, UniProt O96013)
Test: in vitro radiometric kinase assay
Assay type: biochemical

Sequence of p21 activated kinase 4 (PAK4) (O96013 whole entry): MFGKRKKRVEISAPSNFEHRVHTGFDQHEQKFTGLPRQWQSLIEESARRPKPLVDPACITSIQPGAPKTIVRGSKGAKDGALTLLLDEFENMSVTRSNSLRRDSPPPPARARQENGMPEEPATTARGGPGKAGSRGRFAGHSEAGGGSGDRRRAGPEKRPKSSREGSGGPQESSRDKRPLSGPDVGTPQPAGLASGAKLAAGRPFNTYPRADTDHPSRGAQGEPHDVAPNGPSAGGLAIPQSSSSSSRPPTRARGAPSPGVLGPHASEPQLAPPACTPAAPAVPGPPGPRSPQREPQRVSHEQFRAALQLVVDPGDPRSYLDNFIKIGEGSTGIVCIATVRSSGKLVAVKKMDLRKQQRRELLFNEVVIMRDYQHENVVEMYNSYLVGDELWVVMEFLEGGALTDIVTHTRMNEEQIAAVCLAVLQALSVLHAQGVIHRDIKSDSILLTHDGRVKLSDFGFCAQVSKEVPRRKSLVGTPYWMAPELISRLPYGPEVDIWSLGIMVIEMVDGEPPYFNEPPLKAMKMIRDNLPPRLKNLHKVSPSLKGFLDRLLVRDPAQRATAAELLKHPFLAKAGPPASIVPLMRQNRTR

IC50: ~500 nM
Substance: PAKib
